Laboratory results taken from PubChem BioAssay AID270 (DTP/NCI, 2004).
Several values for one entry are separate records, joined by “and”; a condition that tells them apart may be missing. Identical values can stand only once. Records with an inconclusive call do not appear. *1 amine or outer side, *2 acyl side, *3 side chain or, on linkers, in order; H or OH if unused. Where a SMILES comes first, the peptide text is derived from it. Bridges are numbered along the chain shown (N, C = ends). Roman numbers before positions name the chains, in order. [ ]: non-standard residue; d: D form. Actinocin(1to9) = Cc1c2oc3c(C)ccc(C(=O)[*:2])c3nc-2c(C(=O)[*:1])c(N)c1=O; NMeV = CN[CH](C(=O)O)C(C)C; Sar = CNCC(=O)O

System: BDF1 mice, s.c. Lewis lung carcinoma, T/C %
Assay: NCI In Vivo Anticancer Drug Screen. Data for tumor model Lewis Lung Carcinoma (subcutaneous) in B6D2F1 (BDF1) mice
Method in brief: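 First, mice carry a transplantable tumor. Next, groups receive either compound or vehicle. Finally, survival or tumor dimensions in the dosed animals are divided by the corresponding control figure.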

[1] = endpoint: median survival time, dose: 12.5 mg/kg/injection, schedule: Q01DX009 (ip), vehicle: saline with Tween-80, higher = longer survival
[2] = endpoint: median survival time, dose: 25.0 mg/kg/injection, schedule: Q01DX009 (ip), vehicle: saline with Tween-80, higher = longer survival
[3] = endpoint: median survival time, dose: 50.0 mg/kg/injection, schedule: Q01DX009 (ip), vehicle: saline with Tween-80, higher = longer survival

Q: `COC(COC(N)=O)C1=C(N2CC2)C(=O)C(C)=C(N2CC2)C1=O` (stereo unspecified) was tested. Which T/C (endpoint: median survival time, dose: 0.03 mg/kg/injection, schedule: Q01DX009 (ip), vehicle: Klucel (hydroxypropylcellulose) (HPC), higher = longer survival) did it give?
A: 96 % of control

Q: And the T/C (endpoint: median survival time, dose: 0.12 mg/kg/injection, schedule: Q01DX009 (ip), vehicle: Klucel (hydroxypropylcellulose) (HPC), higher = longer survival)?
A: 103 % of control

Q: What about the T/C (endpoint: median survival time, dose: 0.25 mg/kg/injection, schedule: Q01DX009 (ip), vehicle: Klucel (hydroxypropylcellulose) (HPC), higher = longer survival) of the same molecule?
A: 107 % of control

Q: What about the T/C (endpoint: median survival time, dose: 0.5 mg/kg/injection, schedule: Q01DX009 (ip), vehicle: Klucel (hydroxypropylcellulose) (HPC), higher = longer survival) of the same molecule?
A: 119 % of control

Q: What about the T/C (endpoint: median survival time, dose: 1.0 mg/kg/injection, schedule: Q01DX009 (ip), vehicle: Klucel (hydroxypropylcellulose) (HPC), higher = longer survival) of the same molecule?
A: 93 % of control

Q: For `O=NN(CCCl)C(=O)N[C@H]1CCCC[C@H]1Cl`, which T/C (endpoint: median survival time, dose: 22.5 mg/kg/injection, schedule: Q01DX001 (ip), vehicle: Klucel (hydroxypropylcellulose) (HPC), higher = longer survival) is on record?
A: 106 % of control

Q: What about the T/C (endpoint: median survival time, dose: 360.0 mg/kg/injection, schedule: Q01DX001 (ip), vehicle: Klucel (hydroxypropylcellulose) (HPC), higher = longer survival) of the same molecule?
A: 102 % of control

Q: What about the T/C (endpoint: median tumor weight (est.), dose: 45.0 mg/kg/injection, schedule: Q01DX001 (ip), vehicle: carboxymethylcellulose (CMC), higher = larger tumour) of the same molecule?
A: 89 % of control

Q: And the T/C (endpoint: median tumor weight (est.), dose: 90.0 mg/kg/injection, schedule: Q01DX001 (ip), vehicle: carboxymethylcellulose (CMC), higher = larger tumour)?
A: 6 % of control

Q: What about the T/C (endpoint: median tumor weight (est.), dose: 130.0 mg/kg/injection, schedule: Q01DX001 (ip), vehicle: carboxymethylcellulose (CMC), higher = larger tumour) of the same molecule?
A: 8 % of control

Q: Which T/C (endpoint: mean tumor weight, dose: 10.0 mg/kg/injection, schedule: Q01DX011 (ip), vehicle: saline, higher = larger tumour) does the source give for `CC1CCOS(=O)O1` (stereo unspecified) here?
A: 66 % of control

Q: And the T/C (endpoint: mean tumor weight, dose: 20.0 mg/kg/injection, schedule: Q01DX011 (ip), vehicle: saline, higher = larger tumour)?
A: 63 % of control

Q: What about the T/C (endpoint: mean tumor weight, dose: 40.0 mg/kg/injection, schedule: Q01DX011 (ip), vehicle: saline, higher = larger tumour) of the same molecule?
A: 65 % of control

Q: Which results are given for `CC(C)=CC1C(C(=O)OCc2ccc(C)cc2C)C1(C)C` (stereo unspecified)?
A: T/C [1]: 93 % of control; T/C [2]: 104 % of control; T/C [3]: 89 % of control; T/C (endpoint: median survival time, dose: 100.0 mg/kg/injection, schedule: Q01DX009 (ip), vehicle: saline with Tween-80, higher = longer survival): 95 % of control; T/C (endpoint: median survival time, dose: 200.0 mg/kg/injection, schedule: Q01DX009 (ip), vehicle: saline with Tween-80, higher = longer survival): 98 % of control

Q: What does the source list for `Nc1nc2c(ncn2C2OC(CO)C(O)C2N)c(=O)[nH]1` (stereo unspecified)?
A: T/C (endpoint: median survival time, dose: 1.56 mg/kg/injection, schedule: Q01DX009 (ip), vehicle: saline, higher = longer survival): 95 % of control; T/C (endpoint: median survival time, dose: 3.12 mg/kg/injection, schedule: Q01DX009 (ip), vehicle: Klucel (hydroxypropylcellulose) (HPC), higher = longer survival): 99 % of control; T/C (endpoint: median survival time, dose: 3.13 mg/kg/injection, schedule: Q01DX009 (ip), vehicle: saline, higher = longer survival): 91 % of control and 104 % of control; T/C (endpoint: median survival time, dose: 6.25 mg/kg/injection, schedule: Q01DX009 (ip), vehicle: Klucel (hydroxypropylcellulose) (HPC), higher = longer survival): 102 % of control; T/C (endpoint: median survival time, dose: 6.25 mg/kg/injection, schedule: Q01DX009 (ip), vehicle: saline, higher = longer survival): 97 % of control; T/C (endpoint: median survival time, dose: 12.5 mg/kg/injection, schedule: Q01DX009 (ip), vehicle: Klucel (hydroxypropylcellulose) (HPC), higher = longer survival): 102 % of control; T/C [1]: 95 % of control; T/C (endpoint: median survival time, dose: 12.5 mg/kg/injection, schedule: Q01DX009 (ip), vehicle: saline, higher = longer survival): 98 % of control; T/C (endpoint: median survival time, dose: 25.0 mg/kg/injection, schedule: Q01DX009 (ip), vehicle: Klucel (hydroxypropylcellulose) (HPC), higher = longer survival): 90 % of control; T/C [2]: 118 % of control; T/C (endpoint: median survival time, dose: 25.0 mg/kg/injection, schedule: Q01DX009 (ip), vehicle: saline, higher = longer survival): 94 % of control; T/C [3]: 110 % of control

Q: With `CCC(C)C1NC(=O)C(NC(=O)c2c3nc4c(C(=O)NC5C(=O)NC(C(C)C)C(=O)N6CCCC6C(=O)N(C)CC(=O)N(C)C(C(C)C)C(=O)OC5C)ccc(C)c4oc-3c(C)c(=O)c2N)C(C)OC(=O)C(C(C)C)N(C)C(=O)CN(C)C(=O)C2CCCN2C1=O` (stereo unspecified) (I: TIP[Sar][NMeV] / II: TVP[Sar][NMeV]; ester I:1-I:C, II:1-II:C; linker I:N-II:N via Actinocin(1to9); configuration not given here) as the molecule, how does the T/C (endpoint: median survival time, dose: 12.5 micrograms/kg/injection, schedule: Q01DX009 (ip), vehicle: water, higher = longer survival) read?
A: 111 % of control

Q: What about the T/C (endpoint: median survival time, dose: 25.0 micrograms/kg/injection, schedule: Q01DX009 (ip), vehicle: water, higher = longer survival) of the same molecule?
A: 112 % of control

Q: And the T/C (endpoint: median survival time, dose: 50.0 micrograms/kg/injection, schedule: Q01DX009 (ip), vehicle: water, higher = longer survival)?
A: 112 % of control

Q: What about the T/C (endpoint: median survival time, dose: 75.0 micrograms/kg/injection, schedule: Q04DX003 (ip), vehicle: water, higher = longer survival) of the same molecule?
A: 100 % of control

Q: What about the T/C (endpoint: median survival time, dose: 150.0 micrograms/kg/injection, schedule: Q04DX003 (ip), vehicle: water, higher = longer survival) of the same molecule?
A: 108 % of control

Q: And the T/C (endpoint: median survival time, dose: 300.0 micrograms/kg/injection, schedule: Q04DX003 (ip), vehicle: water, higher = longer survival)?
A: 154 % of control
